In US10799521B2, “Use of icaritin in preparing medicament for preventing or treating hematocytopenia” (Lunan Pharmaceutical Group Corporation, priority 2013, dated 2020):

Tested on: chronic ITP model rats
Assay: Thrombin time, prothrombin time and partial thromboplastin time in chronic ITP model rats
Format: in vivo, Wistar rats
Details: high- and medium-dose groups, P<0.05
Method: Establishment of chronic ITP model: Wistar rats were selected to establish the model by injecting rabbit anti-rat platelet serum (APS). […] 50 Rats in which the model was successfully established were selected, weighed, and randomly divided into 5 groups, i.e. the model control group, the icariin group (positive control group), and the icaritin administration groups (high-, medium- and low-dose groups), with 10 rats in each group. The groups were administered with the following therapeutic agents, respectively.

COc1ccc(-c2oc3c(CC=C(C)C)c(O)cc(O)c3c(=O)c2O)cc1 [Icaritin]
significantly shorten: partial thromboplastin time (APTT) | prothrombin time (PT) | thrombin time (TT)
